From paper PMC9298260, “An Immunomodulatory Peptide Dendrimer Inspired from Glatiramer Acetate” (Angewandte Chemie (International Ed. in English), 2021)

These substances were tested on IL-1Ra release from human primary monocytes (assay: IL-1Ra release from human primary monocytes, immunoassay (ELISA) of supernatants). Conditions: Table 1, 48 h, 25–50 μg mL^−1 compound.
Format: cell-based
Set-up: key: +: Ability to induce IL‐1Ra on primary monocytes after 48 h of incubation in the presence of 25–50 μg mL^−1 compound; Ability to induce IL‐1Ra on primary monocytes after 48 h of incubation in the presence of 25–50 μg mL^−1 compound
Procedure: (§1) As an activity screen we focused on interleukin‐1 receptor antagonist (IL‐1Ra), a cytokine released by circulating antigen presenting cells (APC) in response to GA.[15, 35] […] To test our dendrimers, we quantified by immunoassay the release of IL‐1Ra from human primary monocytes of healthy donors, an easily accessible type of APC, stimulated or not by addition of lipopolysaccharide (LPS), which in our hands provided a reliable read‐out.[15] We tested at defined weight/volume (25 and 50 μg mL^−1 compound as typically reported for GA)[15, 35] to account for a possible activity increase with MW as often observed with dendrimers when using molarity. In the initial screen the levels of secreted IL‐1Ra remained below 1 ng mL^−1 for all the smaller test compounds as well as with the linear peptide analogs of GA.
(§2) Figure 2 Cytokine level of IL‐1Ra in supernatants of primary human monocytes of healthy donors treated with peptide dendrimers, evaluated by ELISA (bars, left vertical axis) and mRNA levels (▴, right vertical axis). […] For mRNA levels evaluation, 2×10^6 cells 3 mL^−1 in 6 well plates were incubated with 50 μg mL^−1 dendrimer or GA for 18 h. […]
(§3) Enzyme-linked immunosorbent assay (ELISA)
(§4) Monocytes (5×10^4 cells/200 μL well; 96-well plates) were preincubated for 1 h with or without compounds in RPMI-1640 medium supplemented with 10% heat-inactivated FBS, 50 μg/mL streptomycin, 50 U/mL penicillin, 2 mM L-glutamine, and 5 μg/mL polymyxin B sulfate and then cultured for 48 h in the presence or absence of LPS (100 ng/mL) (2). The production of IL-1Ra was measured in culture supernatants by commercially available enzyme immunoassay according to manufacture protocol.
(§5) Figure S2. Cytokine level of IL-1Ra in supernatants of monocytes for active dendrimers and analogues evaluated by ELISA assay on primary human monocytes of healthy donors. 5×10^4 cells/200 µL in 96 well plates, were incubated with dendrimers or GA as a control for 48 h in presence or absence of LPS (100 ng/mL), in a range of concentrations (50-25 µg/mL) (mean ± SD, n = 2 different experiments). The results are present as the difference between each sample and the non-treated sample to take into account the difference between base line for each donor.
(§6) Figure S3. Cytokine level of IL-1Ra in supernatants of monocytes for active dendrimers and […]
(§7) presence or absence of LPS (100 ng/mL), in a range of concentrations (100-12.5 µg/mL) (mean ± SD, n = 3 different experiments). […]

Substance | Act. (ability to induce IL-1Ra)
(AK)8(KAK)4(KEKA)2KAKEAYCA-NH2 [compound 34] | +
(AK)8(KAKAKY)4(KAKEYEY)2KAKEYEY-NH2 [compound 5] | −
(AcKA)8(KAK)4(KEKA)2KAKEAYCA-NH2 [Ac1] | −
(AcKA)8(KKKAK)4(KEKA)2KAKEAYCA-NH2 [Ac36] | +
(FumKA)8(KKKAK)4(KEKA)2KAKEAYCA-NH2 [Fum36] | +
(KA)8(KAK)4(KEKA)2KAKEAYC(Fluo)A-NH2 [1Fl, analog of 1 bearing a fluorescein label at the dendrimer core] | +
(KA)8(KAK)4(KEKA)2KAKEAYCA-NH2 [sr-1] | +
(KA)8(KAK)4(KEKA)2KAKEAYCA-NH2)2 (disulfide) [1-1, disulfide bridged dimer of 1] | +
(KA)8(KKAKE)4(KYKAKA)2KAYKKA-OH [sr-4] | +
(KA)8(KKKAK)4(KEKA)2KAKEAYCA-NH2 [compound 36] | +
(KAEKAYA)4(KEKYAKA)2KEKYKA-NH2 [compound 2] | −
(KAK)4(KEKA)2KAKEAYCA-NH2 [compound 33] | −
(KK)8(KAK)4(KEKA)2KAKEAYCA-NH2 [compound 35] | +

Same assay, conditions: supplement s001.csv, 48 h

Substance | IL-1Ra
(AK)8(KAK)4(KEKA)2KAKEAYCA-NH2 [compound 34] | +
(AcKA)8(KKKAK)4(KEKA)2KAKEAYCA-NH2 [Ac36] | +
(FumKA)8(KKKAK)4(KEKA)2KAKEAYCA-NH2 [Fum36] | +
(KA)8(KAK)4(KEKA)2KAKEAYC(Fluo)A-NH2 [1Fl, analog of 1 bearing a fluorescein label at the dendrimer core] | +
(KA)8(KAK)4(KEKA)2KAKEAYCA-NH2 [sr-1] | +
(KA)8(KAK)4(KEKA)2KAKEAYCA-NH2)2 (disulfide) [1-1, disulfide bridged dimer of 1] | +
(KA)8(KKAKE)4(KYKAKA)2KAYKKA-OH [sr-4] | +
(KA)8(KKKAK)4(KEKA)2KAKEAYCA-NH2 [compound 36] | +
(KK)8(KAK)4(KEKA)2KAKEAYCA-NH2 [compound 35] | +

Same assay, conditions: supplement s003.zip SMILES csv, 48 h

Substance | IL-1Ra
(AK)8(KAK)4(KEKA)2KAKEAYCA-NH2 [compound 34] | +
(AcKA)8(KKKAK)4(KEKA)2KAKEAYCA-NH2 [Ac36] | +
(FumKA)8(KKKAK)4(KEKA)2KAKEAYCA-NH2 [Fum36] | +
(KA)8(KAK)4(KEKA)2KAKEAYC(Fluo)A-NH2 [1Fl, analog of 1 bearing a fluorescein label at the dendrimer core] | +
(KA)8(KAK)4(KEKA)2KAKEAYCA-NH2 [sr-1] | +
(KA)8(KAK)4(KEKA)2KAKEAYCA-NH2)2 (disulfide) [1-1, disulfide bridged dimer of 1] | +
(KA)8(KKAKE)4(KYKAKA)2KAYKKA-OH [sr-4] | +
(KK)8(KAK)4(KEKA)2KAKEAYCA-NH2 [compound 35] | +

Each substance was assayed on IL-1Ra release from human primary monocytes in the same assay as above. Conditions: primary human monocytes of healthy donors, 25 and 50 μg mL^−1, 48 h.
Format: cell-based
Procedure: as §1, §2, §3, §4, §5, §6, §7

Substance | IL-1Ra release activity (in words)
(AK)8(KAK)4(KEKA)2KAKEAYCA-NH2 [compound 34] | preserved
(AcKA)8(KAK)4(KEKA)2KAKEAYCA-NH2 [Ac1] | abolished
(AcKA)8(KKKAK)4(KEKA)2KAKEAYCA-NH2 [Ac36] | preserved
(FumKA)8(KAK)4(KEKA)2KAKEAYCA-NH2 [Fum1] | abolished
(FumKA)8(KKAKE)4(KYKAKA)2KAYKKA-OH [Fum4] | abolished
(FumKA)8(KKKAK)4(KEKA)2KAKEAYCA-NH2 [Fum36] | preserved
(KA)8(KAK)4(KEKA)2KAKEAYCA-NH2 [sr-1] | as active as the pure L‐enantiomers
(KA)8(KAK)4(KEKA)2KAKEAYCA-NH2)2 (disulfide) [1-1, disulfide bridged dimer of 1] | active
(KA)8(KKAKE)4(KYKAKA)2KAYKKA-OH [sr-4] | as active as the pure L‐enantiomers
(KA)8(KKKAK)4(KEKA)2KAKEAYCA-NH2 [compound 36] | preserved
(KK)8(KAK)4(KEKA)2KAKEAYCA-NH2 [compound 35] | preserved

These substances were tested on IL-1Ra release from human primary monocytes in the same assay as above. Conditions: Table S1 initial library; primary monocytes, 48 h.
Format: cell-based
Set-up: key: +: Ability to induce IL-1Ra on primary monocytes after 48 h of incubation; Ability to induce IL-1Ra on primary monocytes after 48 h of incubation
Procedure: as §1, §2, §3, §4, §5, §6, §7

Substance | Act. (ability to induce IL-1Ra)
(AK)8(KAKAKY)4(KAKEYEY)2KAKEYEY-NH2 [compound 5] | -
(AcAKA)4(KEK)2KYEY-OH [Ac11] | -
(AcAKA)4(KEY)2KYKK-NH2 [Ac15] | -
(AcAKA)4(KKEY)2KE-OH [Ac10] | -
(AcAKA)8(KYEK)4(KEKA)2KAKY-OH [Ac3] | -
(AcAKE)4(KAYA)2KKKK-NH2 [Ac16] | -
(AcAYK)4(KE)2KKAA-OH [Ac9] | -
(AcKA)8(KAK)4(KEKA)2KAKEAYCA-NH2 [Ac1] | -
(AcKAE)4(KAEK)2KYYA-OH [Ac18] | -
(AcKYA)4(KEA)2KKKA-OH [Ac14] | -
(ClAcAKA)4(KEK)2KYEY-OH [ClAc11] | -
(FumKA)8(KAK)4(KEKA)2KAKEAYCA-NH2 [Fum1] | -
(FumKA)8(KKAKE)4(KYKAKA)2KAYKKA-OH [Fum4] | -
(KAEKAYA)4(KEKYAKA)2KEKYKA-NH2 [compound 2] | -

Same assay, conditions: Table S2 analogs of 1 and 4; primary monocytes, 48 h

Substance | Act. (ability to induce IL-1Ra)
(AK)8(KAK)4(KEKA)2KAKEAYCA-NH2 [compound 34] | +
(AcKA)8(KKKAK)4(KEKA)2KAKEAYCA-NH2 [Ac36] | +
(FumKA)8(KKKAK)4(KEKA)2KAKEAYCA-NH2 [Fum36] | +
(KA)8(KAK)4(KEKA)2KAKEAYC(Fluo)A-NH2 [1Fl, analog of 1 bearing a fluorescein label at the dendrimer core] | +
(KA)8(KAK)4(KEKA)2KAKEAYCA-NH2 [sr-1] | +
(KA)8(KAK)4(KEKA)2KAKEAYCA-NH2)2 (disulfide) [1-1, disulfide bridged dimer of 1] | +
(KA)8(KKAKE)4(KYKAKA)2KAYKKA-OH [sr-4] | +
(KA)8(KKKAK)4(KEKA)2KAKEAYCA-NH2 [compound 36] | +
(KAK)4(KEKA)2KAKEAYCA-NH2 [compound 33] | -
(KK)8(KAK)4(KEKA)2KAKEAYCA-NH2 [compound 35] | +

Same assay, conditions: ability to induce IL-1Ra on primary monocytes after 48 h of incubation; class + / -

Substance | IL-1Ra
(AK)8(KAK)4(KEKA)2KAKEAYCA-NH2 [compound 34] | +
(AK)8(KAKAKY)4(KAKEYEY)2KAKEYEY-NH2 [compound 5] | -
(AcAKA)4(KEK)2KYEY-OH [Ac11] | -
(AcAKA)4(KEY)2KYKK-NH2 [Ac15] | -
(AcAKA)4(KKEY)2KE-OH [Ac10] | -
(AcAKA)8(KYEK)4(KEKA)2KAKY-OH [Ac3] | -
(AcAKE)4(KAYA)2KKKK-NH2 [Ac16] | -
(AcAYK)4(KE)2KKAA-OH [Ac9] | -
(AcKA)8(KAK)4(KEKA)2KAKEAYCA-NH2 [Ac1] | -
(AcKA)8(KKKAK)4(KEKA)2KAKEAYCA-NH2 [Ac36] | +
(AcKAE)4(KAEK)2KYYA-OH [Ac18] | -
(AcKYA)4(KEA)2KKKA-OH [Ac14] | -
(ClAcAKA)4(KEK)2KYEY-OH [ClAc11] | -
(FumKA)8(KAK)4(KEKA)2KAKEAYCA-NH2 [Fum1] | -
(FumKA)8(KKAKE)4(KYKAKA)2KAYKKA-OH [Fum4] | -
(FumKA)8(KKKAK)4(KEKA)2KAKEAYCA-NH2 [Fum36] | +
(KA)8(KAK)4(KEKA)2KAKEAYC(Fluo)A-NH2 [1Fl, analog of 1 bearing a fluorescein label at the dendrimer core] | +
(KA)8(KAK)4(KEKA)2KAKEAYCA-NH2 [sr-1] | +
(KA)8(KAK)4(KEKA)2KAKEAYCA-NH2)2 (disulfide) [1-1, disulfide bridged dimer of 1] | +
(KA)8(KKAKE)4(KYKAKA)2KAYKKA-OH [sr-4] | +
(KA)8(KKKAK)4(KEKA)2KAKEAYCA-NH2 [compound 36] | -
(KAEKAYA)4(KEKYAKA)2KEKYKA-NH2 [compound 2] | -
(KAK)4(KEKA)2KAKEAYCA-NH2 [compound 33] | -
(KK)8(KAK)4(KEKA)2KAKEAYCA-NH2 [compound 35] | +
